The results in this text go back to ChEMBL document CHEMBL5241080, “Quinoline anticancer agents active on DNA and DNA-interacting proteins: From classical to emerging therapeutic targets” (Eur J Med Chem, 2021).

What is called bioavailability is dose-corrected exposure relative to a reference, in per cent. Higher therefore signals good availability. One may read the GI50 as the concentration that inhibits growth by half. By IC50 is commonly meant the midpoint of a concentration-inhibition curve. For orientation: IC90 means the point of the concentration-response curve where the effect stands at 90%. A lower IC90 goes with greater potency.

Series [1] is described as follows: Oral bioavailability CD-1 mouse at 30 mg/kg. The class given is ADME, organism-based. The note with it: in vivo.
For series [2], the system named is HeLa. Briefly: Cytotoxicity against human HeLa cells by MTT assay. The class given is functional. Background: Tetrazolium dyes change colour on reduction, which living cells bring about.
A further series has as its system SW480. Briefly: Cytotoxicity against human SW480 cells by MTT assay. The format is functional.
Another series deals with C-33-A. Description: Cytotoxicity against human C-33-A cells by MTT assay. The format is functional.
The subject of the next series is K-562R. Briefly: Cytotoxicity against human K-562R cells by MTT assay. The format is functional.
Another series deals with SW-620. Briefly: Cytotoxicity against human SW620 cells by MTT assay. The class given is functional.
Series [3] is described as follows: Cytotoxicity against human CAL1 cells by MTT assay. The class given is functional.
Series [4] relates to MCF7. Briefly: Cytotoxicity against human MCF7 cells by MTT assay. The format is functional.
Another series concerns BT-483. Briefly: Antiproliferative activity against human BT-483 cells. The class given is functional, cell-based.
For the next series, the system named is NCI-H929. Description: Antiproliferative activity against human NCI-H929 cells. The class given is functional, cell-based.
For a further series, the system named is RPMI-8226. Briefly: Antiproliferative activity against human RPMI-8226 cells. The class given is functional, cell-based.
The test system of another series is U-266. Description: Antiproliferative activity against human U-266 cells. The format is functional, cell-based.
In series [5] the target is Protein deacetylase HDAC6 (Homo sapiens, UniProt Q9UBN7). Description: Inhibition of HDAC6 (unknown origin).
Series [6] deals with A549. Description: Antiproliferative activity against human A549 cells. The format is functional, cell-based.
Series [7] has as its system HeLa. Briefly: Antiproliferative activity against human HeLa cells. The format is functional, cell-based.
In a further series the test system is B16-F10. Briefly: Antiproliferative activity against mouse B16-F10 cells. The format is functional, cell-based.
Series [8] relates to MCF7. Briefly: Antiproliferative activity against human MCF7 cells. The class given is functional, cell-based.
Series [9] in a line: Antiproliferative activity against human MED-MEB-8A cells. The class given is functional, cell-based.
The test system of another series is Jurkat E6.1. Description: Antiproliferative activity against human Jurkat E6.1 cells. The class given is functional, cell-based.
In a further series the target is Histone deacetylase 8 (Homo sapiens, UniProt Q9BY41). Description: Inhibition of HDAC8 (unknown origin).
Series [10] relates to PC-3. Description: Antiproliferative activity against human PC-3 cells. The format is functional, cell-based.
A short description of series [11]: Inhibition of topoisomerase 2 (unknown origin). More on the design: species or system Homo sapiens.
The test system of a further series is KB. Briefly: Antiproliferative activity against human KB cells. The class given is functional, cell-based.
Another series deals with T1, DNA topoisomerase 1 (Homo sapiens, UniProt P11387).
T1 sequence (P11387 whole entry): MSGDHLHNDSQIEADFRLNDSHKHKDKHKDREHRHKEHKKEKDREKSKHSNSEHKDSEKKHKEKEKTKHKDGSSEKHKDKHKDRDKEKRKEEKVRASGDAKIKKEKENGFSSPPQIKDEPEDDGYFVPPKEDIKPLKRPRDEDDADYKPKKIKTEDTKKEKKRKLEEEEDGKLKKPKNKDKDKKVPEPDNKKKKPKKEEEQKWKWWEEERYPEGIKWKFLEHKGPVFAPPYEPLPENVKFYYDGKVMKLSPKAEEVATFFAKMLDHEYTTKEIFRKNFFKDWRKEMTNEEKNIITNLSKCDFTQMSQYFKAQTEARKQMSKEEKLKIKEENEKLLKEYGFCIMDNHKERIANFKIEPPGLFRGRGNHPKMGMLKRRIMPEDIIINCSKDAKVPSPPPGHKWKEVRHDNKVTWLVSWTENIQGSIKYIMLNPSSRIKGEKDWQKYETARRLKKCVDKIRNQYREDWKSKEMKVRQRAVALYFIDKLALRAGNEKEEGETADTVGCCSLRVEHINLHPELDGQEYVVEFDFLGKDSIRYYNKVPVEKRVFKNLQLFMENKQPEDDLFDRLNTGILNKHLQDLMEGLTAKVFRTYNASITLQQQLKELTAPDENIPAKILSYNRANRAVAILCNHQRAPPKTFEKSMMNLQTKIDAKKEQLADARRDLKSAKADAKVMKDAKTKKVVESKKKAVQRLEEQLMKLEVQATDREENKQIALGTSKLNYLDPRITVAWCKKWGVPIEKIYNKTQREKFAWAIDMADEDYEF
Description: Inhibition of topoisomerase 1 (unknown origin).

A short description of series [12]: Antiproliferative activity against mouse P338 cells. The class given is functional, cell-based.
For series [13], the system named is HCT-116. Briefly: Antiproliferative activity against human HCT-116 cells. The format is functional, cell-based.
The target in the next series is Histone deacetylase. Description: Inhibition of HDAC (unknown origin). The format is protein assay, Homo sapiens.
Series [14] deals with HeLa. Briefly: Antiproliferative activity against human HeLa cells incubated for 24 hrs by WST-1 assay. The format is functional, cell-based.
Series [15] concerns A549. Briefly: Cytotoxicity against human A549 cells incubated for 72 hrs by MTT assay. The format is functional, cell-based. The note with it: A549, 72 h.
Series [16] concerns HCT-116. Description: Cytotoxicity against human HCT-116 cells assessed as inhibition of cell growth incubated for 72 hrs by MTT assay. The format is functional, cell-based. Particulars: HCT-116, 72 h.
Series [17] addresses Hepatocyte growth factor receptor (Homo sapiens, UniProt P08581). Briefly: Inhibition of c-MET (unknown origin).
The target in series [18] is DNA (cytosine-5)-methyltransferase 1 (Homo sapiens, UniProt P26358). Description: Inhibition of human recombinant full-length N-terminal GST tagged DNMT1 (2 to 1632 residues) expressed in Sf9 insect cells using poly(dI-dC) as substrate by hotspot assay.
Series [19] deals with PC-3. Description: Antiproliferative activity against human PC-3 cells assessed as reduction cell viability incubated for 48 hrs by MTT assay. The class given is functional, cell-based. The note with it: PC-3, 48 h.
In the next series the test system is Raji. Description: Antiproliferative activity against human Raji cells assessed as reduction cell viability incubated for 48 hrs by MTT assay. The format is functional, cell-based.
For another series, the system named is MDA-MB-231. Description: Antiproliferative activity against human MDA-MB-231 cells assessed as reduction cell viability incubated for 48 hrs by MTT assay. The class given is functional, cell-based. The note with it: MDA-MB-231, 48 h.
The nature of series [20]: Antiproliferative activity against human RPMI cells assessed as reduction cell viability incubated for 48 hrs by MTT assay. The format is functional, cell-based.
Series [21] has as its target DNA (cytosine-5)-methyltransferase 3A (Homo sapiens, UniProt Q9Y6K1). Description: Inhibition of human recombinant DNMT3A (214 to 912 residues)expressed in Sf9 insect cells using lambda DNA as substrate by scintillation/filter plate assay.
Another series has as its system U-937. Briefly: Antiproliferative activity against human U-937 cells assessed as reduction cell viability incubated for 48 hrs by MTT assay. Particulars: U-937, 48 h. The format is functional, cell-based.

Sequence of Protein deacetylase HDAC6 (Q9UBN7 whole entry): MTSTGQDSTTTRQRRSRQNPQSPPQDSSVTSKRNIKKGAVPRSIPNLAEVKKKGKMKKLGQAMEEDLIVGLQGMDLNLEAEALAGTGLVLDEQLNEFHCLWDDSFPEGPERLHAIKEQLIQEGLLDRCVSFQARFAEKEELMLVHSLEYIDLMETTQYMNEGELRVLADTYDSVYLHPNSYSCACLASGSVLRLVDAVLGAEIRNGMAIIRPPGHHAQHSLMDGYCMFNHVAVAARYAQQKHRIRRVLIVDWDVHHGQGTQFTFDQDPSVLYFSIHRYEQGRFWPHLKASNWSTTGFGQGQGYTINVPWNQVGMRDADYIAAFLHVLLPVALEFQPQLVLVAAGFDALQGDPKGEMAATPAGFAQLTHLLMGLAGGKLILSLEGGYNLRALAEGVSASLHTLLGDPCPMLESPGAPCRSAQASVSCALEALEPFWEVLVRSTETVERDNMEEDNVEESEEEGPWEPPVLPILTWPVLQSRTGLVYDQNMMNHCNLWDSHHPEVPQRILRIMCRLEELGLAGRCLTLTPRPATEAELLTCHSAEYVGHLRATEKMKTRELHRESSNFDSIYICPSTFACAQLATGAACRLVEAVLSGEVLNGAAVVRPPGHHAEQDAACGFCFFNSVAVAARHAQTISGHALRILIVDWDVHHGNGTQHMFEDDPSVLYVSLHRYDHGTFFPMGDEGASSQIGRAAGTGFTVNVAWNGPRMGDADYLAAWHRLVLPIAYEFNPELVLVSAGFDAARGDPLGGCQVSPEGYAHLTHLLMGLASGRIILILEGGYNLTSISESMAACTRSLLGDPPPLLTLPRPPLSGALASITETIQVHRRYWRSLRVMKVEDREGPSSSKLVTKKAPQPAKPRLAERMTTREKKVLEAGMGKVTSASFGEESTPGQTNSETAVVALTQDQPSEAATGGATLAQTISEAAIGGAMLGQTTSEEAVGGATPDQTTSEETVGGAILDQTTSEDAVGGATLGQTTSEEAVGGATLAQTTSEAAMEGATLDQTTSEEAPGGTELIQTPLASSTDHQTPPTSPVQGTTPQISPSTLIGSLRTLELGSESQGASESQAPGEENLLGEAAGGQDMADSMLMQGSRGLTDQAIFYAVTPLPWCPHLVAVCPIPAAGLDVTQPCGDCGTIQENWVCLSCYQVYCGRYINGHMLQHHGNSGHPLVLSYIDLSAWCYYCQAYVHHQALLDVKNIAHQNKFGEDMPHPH
Sequence of DNA (cytosine-5)-methyltransferase 3A (Q9Y6K1 whole entry, looked up, the tested form may be a part): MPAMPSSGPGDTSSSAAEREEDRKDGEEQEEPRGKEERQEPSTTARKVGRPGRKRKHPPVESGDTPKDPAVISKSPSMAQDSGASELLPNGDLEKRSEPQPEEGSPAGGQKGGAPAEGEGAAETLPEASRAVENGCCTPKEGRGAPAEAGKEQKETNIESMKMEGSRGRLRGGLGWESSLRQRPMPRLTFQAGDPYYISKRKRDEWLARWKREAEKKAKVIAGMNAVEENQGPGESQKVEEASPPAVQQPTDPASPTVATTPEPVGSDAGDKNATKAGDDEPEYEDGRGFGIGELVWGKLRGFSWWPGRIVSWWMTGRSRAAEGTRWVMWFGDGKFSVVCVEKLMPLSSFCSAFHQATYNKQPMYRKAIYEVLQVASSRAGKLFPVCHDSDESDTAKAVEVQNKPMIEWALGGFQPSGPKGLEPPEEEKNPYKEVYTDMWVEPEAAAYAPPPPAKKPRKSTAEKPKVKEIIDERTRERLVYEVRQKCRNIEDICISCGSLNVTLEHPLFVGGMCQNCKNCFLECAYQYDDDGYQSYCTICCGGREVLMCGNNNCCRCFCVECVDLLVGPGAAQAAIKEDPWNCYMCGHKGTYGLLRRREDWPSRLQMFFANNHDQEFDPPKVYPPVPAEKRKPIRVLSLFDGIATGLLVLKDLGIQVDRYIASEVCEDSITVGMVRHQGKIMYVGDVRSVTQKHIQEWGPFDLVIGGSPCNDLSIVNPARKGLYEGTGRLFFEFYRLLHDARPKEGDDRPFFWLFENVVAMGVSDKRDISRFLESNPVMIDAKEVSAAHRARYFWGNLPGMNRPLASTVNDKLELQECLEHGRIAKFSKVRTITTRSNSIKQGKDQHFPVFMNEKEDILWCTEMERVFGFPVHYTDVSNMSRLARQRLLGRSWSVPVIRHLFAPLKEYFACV
Sequence of DNA (cytosine-5)-methyltransferase 1 (P26358 whole entry, the tested form may be a part): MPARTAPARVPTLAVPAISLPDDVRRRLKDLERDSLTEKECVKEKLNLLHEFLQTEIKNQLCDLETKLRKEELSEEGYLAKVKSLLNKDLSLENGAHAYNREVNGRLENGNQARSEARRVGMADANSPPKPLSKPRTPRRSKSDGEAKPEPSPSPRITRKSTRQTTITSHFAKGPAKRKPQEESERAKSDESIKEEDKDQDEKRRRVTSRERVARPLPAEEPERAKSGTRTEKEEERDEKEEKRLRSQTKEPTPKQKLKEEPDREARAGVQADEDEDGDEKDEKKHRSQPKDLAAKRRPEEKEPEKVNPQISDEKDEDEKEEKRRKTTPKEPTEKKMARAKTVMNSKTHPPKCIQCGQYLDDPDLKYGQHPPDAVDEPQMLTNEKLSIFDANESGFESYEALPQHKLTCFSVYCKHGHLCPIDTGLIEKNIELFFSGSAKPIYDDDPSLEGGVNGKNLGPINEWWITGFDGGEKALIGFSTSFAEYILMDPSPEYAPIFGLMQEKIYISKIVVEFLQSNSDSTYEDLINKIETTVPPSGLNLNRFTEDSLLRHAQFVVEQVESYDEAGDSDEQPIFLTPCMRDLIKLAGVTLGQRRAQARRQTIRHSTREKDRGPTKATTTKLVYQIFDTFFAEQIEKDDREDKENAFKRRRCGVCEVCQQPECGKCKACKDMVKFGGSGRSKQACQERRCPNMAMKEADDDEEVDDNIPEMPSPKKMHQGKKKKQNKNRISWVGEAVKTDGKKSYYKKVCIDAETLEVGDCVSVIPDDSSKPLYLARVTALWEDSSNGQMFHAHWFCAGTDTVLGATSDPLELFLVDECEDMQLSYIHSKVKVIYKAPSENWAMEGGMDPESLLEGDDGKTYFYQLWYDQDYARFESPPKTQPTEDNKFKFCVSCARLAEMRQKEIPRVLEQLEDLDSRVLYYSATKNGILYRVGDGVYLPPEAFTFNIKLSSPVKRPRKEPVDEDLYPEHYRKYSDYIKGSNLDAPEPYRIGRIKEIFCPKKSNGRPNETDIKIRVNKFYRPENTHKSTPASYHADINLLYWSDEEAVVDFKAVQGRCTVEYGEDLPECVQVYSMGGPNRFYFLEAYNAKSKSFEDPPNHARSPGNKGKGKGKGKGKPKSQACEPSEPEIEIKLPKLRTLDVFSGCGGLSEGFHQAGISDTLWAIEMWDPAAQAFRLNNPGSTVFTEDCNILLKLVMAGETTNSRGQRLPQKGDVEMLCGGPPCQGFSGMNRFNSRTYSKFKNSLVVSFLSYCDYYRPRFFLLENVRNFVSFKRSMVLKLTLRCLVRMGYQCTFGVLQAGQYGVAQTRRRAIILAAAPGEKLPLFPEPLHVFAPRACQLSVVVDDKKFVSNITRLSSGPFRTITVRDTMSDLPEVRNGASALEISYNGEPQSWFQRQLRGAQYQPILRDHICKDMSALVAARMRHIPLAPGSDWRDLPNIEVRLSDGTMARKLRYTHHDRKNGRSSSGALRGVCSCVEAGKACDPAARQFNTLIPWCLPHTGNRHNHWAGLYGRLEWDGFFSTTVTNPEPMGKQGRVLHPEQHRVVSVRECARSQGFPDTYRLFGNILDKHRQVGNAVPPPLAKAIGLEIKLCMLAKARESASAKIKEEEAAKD
Sequence of Hepatocyte growth factor receptor (P08581 whole entry, the tested form may be a part): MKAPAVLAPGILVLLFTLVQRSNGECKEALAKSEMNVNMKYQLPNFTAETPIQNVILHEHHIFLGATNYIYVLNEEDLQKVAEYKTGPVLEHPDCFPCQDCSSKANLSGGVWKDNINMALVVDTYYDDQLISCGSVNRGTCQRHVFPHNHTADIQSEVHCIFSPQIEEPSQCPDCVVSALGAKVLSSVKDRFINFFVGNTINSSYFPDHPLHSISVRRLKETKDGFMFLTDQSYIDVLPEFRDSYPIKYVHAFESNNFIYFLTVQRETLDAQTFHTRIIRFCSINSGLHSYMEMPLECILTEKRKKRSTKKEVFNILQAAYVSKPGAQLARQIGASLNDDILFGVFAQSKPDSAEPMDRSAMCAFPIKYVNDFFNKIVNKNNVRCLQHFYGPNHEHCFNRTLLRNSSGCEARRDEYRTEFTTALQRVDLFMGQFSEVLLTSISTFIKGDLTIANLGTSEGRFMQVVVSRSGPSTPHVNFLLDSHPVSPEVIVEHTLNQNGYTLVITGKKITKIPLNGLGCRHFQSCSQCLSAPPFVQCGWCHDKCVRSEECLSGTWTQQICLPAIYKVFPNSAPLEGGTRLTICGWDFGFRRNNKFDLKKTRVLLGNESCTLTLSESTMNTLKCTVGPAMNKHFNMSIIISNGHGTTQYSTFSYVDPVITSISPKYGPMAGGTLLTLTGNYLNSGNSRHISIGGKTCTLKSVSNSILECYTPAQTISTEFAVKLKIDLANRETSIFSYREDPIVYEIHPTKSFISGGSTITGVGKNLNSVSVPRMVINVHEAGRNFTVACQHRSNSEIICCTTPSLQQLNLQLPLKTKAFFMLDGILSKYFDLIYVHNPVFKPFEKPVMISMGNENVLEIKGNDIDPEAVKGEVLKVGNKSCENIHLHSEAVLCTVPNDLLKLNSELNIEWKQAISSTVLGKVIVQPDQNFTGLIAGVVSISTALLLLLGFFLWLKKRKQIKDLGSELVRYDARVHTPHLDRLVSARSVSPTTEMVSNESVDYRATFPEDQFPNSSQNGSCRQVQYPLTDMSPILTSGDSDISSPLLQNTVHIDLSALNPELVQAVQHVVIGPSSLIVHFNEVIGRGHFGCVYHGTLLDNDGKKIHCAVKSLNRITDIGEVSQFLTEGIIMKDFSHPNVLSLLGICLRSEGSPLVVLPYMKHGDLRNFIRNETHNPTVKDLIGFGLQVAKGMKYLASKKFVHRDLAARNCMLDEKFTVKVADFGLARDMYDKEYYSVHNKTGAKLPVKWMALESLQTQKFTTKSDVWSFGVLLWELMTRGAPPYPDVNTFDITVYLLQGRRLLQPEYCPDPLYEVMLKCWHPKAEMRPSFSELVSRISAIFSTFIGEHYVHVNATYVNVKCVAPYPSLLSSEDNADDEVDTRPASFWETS

In series [1], `COc1ccc2c(c1)/C(=N\OCCN1CCCC1)c1c-2c(O)nc2ccccc12` registered a bioavailability of 10.9%.

On to `CCN(CC)CCNc1nc2c(Nc3ccccc3)c3ccccc3nc2s1`, for which the GI50 (in the series on HeLa [2]; in the series on SW480; in the series on C-33-A; with K-562R; in the series with SW-620; in series [3]) was 15.9 µM each time. The compound also came in with a GI50 in the series with MCF7 [4] of 15.9 µM.

On to `COc1ccc2c(c1)/C(=N\OCCCN(C)C)c1c-2c(N2CCNCC2)nc2ccccc12`, for which the IC50 in the series on BT-483 came to 1.1 µM.

Turning to `O=C(/C=C/c1cccc(S(=O)(=O)c2ccc3ccccc3n2)c1)NO`, the half-maximal inhibitory concentration (IC50) in the series with NCI-H929 came to 9.14 µM; with RPMI-8226, 7.49 µM; in the series with U-266, 40.6 µM; in [5] it was 0.000291 µM; in the series on A549 [6] it was 0.27 µM.

Regarding `COc1cc(NC(=O)NOCCCCCC(=O)NO)c2nc(OC)cc(C)c2c1`, the IC50 in the series with HeLa [7] worked out at 11 µM; with B16-F10, 9.76 µM; with MCF7 [8], 11.4 µM; in series [9] it was 0.59 µM; in the series with Jurkat E6.1, 7.19 µM; against Histone deacetylase 8, 0.00174 µM. The IC50 in the series on A549 [6] turned out to be 9.12 µM.

Regarding `O=C(NO)c1ccc(CNc2cccc3cccnc23)cc1`, the 50% inhibitory concentration (IC50) with PC-3 [10] was found to be 3.28 µM; in series [5] it was 0.00273 µM; with A549 [6], 5.33 µM.

`CN(C)CCNc1nc2cc(O)ccc2c2c1C(=O)c1ccccc1-2`: the IC50 in series [11] is 6.5 µM; in the series with KB it was 0.0096 µM; on DNA topoisomerase 1, 2 µM; in series [12], 0.0011 µM.

`CCN(CC)CCOC(=O)c1ccc2c(c1)c1nc3ccccc3c(OCCN(CC)CC)c1n2CCN(CC)CC` registered an IC90 in the series with HCT-116 [13] of under 10 µM.

Regarding `C/C(=C\c1ccc(C(=O)NO)cc1)CNc1cnc2c(Br)cccc2c1`, the values for the IC50 against Histone deacetylase and in the series on HeLa [14] were 0.028 µM and 1.8 µM, respectively.

With `COc1cc2c(Oc3ccc(NC(=O)C4CCN(c5ccc(F)cc5)C4=O)cc3)ccnc2cc1OCCCCCCC(=O)NO` (stereo unspecified), the IC50 in the series on A549 [15] was 1.08 µM; in the series with HCT-116 [16], 0.00054 µM; in [17], 0.0125 µM.

As for `O=C(Nc1ccc(NC(=O)c2ccc(Nc3ccnc4ccccc34)cc2)cc1)OCc1ccccc1`, the IC50 was 67 µM in series [18]; 0.9 µM with PC-3 [19]; 0.4 µM in the series with Raji; 0.9 µM with MDA-MB-231; 2.4 µM in series [20]; 17 µM in [21]. Besides, the IC50 in the series on U-937 came out at 0.4 µM.
